Earlier results in patent US5565431A, “Cancer cell inhibitors and method” (priority 1994, dated 1996).

Legend:
[1] = system: seven colon cancer cell lines; conditions: Garcia et al. (9)
[2] = system: normal colonic mucosa cells; conditions: Garcia et al. (9)

CO[C@H]1[C@@H](OC)C[C@H](C)[C@@H](OC)C2=CC(=O)C=C(NC(=O)/C(C)=C/C=C\[C@H](OC)[C@@H](OC(N)=O)/C(C)=C/[C@@H]1C)C2=O [herbimycin A]
Inhibition of seven colon cancer cell lines [1]: greater than 40% | Inhibition of normal colonic mucosa cells [2]: 12%
